Reference: patent US8062671B2, “Oily skin preparation for external use” (Shiseido Co., Ltd., priority 2003, dated 2011)

target: urokinase (UK) (Homo sapiens, UniProt P00749); test: Measuring method of UK blocking rate (S2444 substrate, absorbance 405 nm); assay type: biochemical; details: ion concentration 100 ppm; Tris-HCl buffer pH7.5
Protocol: About the complex powder of this invention, zinc oxide elutes zinc ion and inactivates plasminogen activator. UK is a kind of plasminogen activator. Measuring method of UK blocking rate. […] Thereafter, 20 μL of 12% trichloroacetic acid solution is added to stop the reaction, and powder is filtered. Absorbance of the filtrate at 405 nm is measured to obtain UK activity in an assessment system and UK blocking rate of the sample is calculated.

| Compound | UK blocking rate (%) |
| --- | --- |
| [Mg+2] [Mg^2+] | 0% |
| [Ce+3] [Ce^3+] | 5% |
| [Co+2] [Co^2+] | 27% |
| [Li+] [Li^+] | 0% |
| [Cu+2] [Cu^2+] | 36% |
| [Ba+2] [Ba^2+] | 0% |
| [Ni+2] [Ni^2+] | 30% |
| [K+] [K^+] | 0% |
| [Al+3] [Al^3+] | 16% |
| [Zr+4] [Zr^4+] | 45% |
| [Zn+2] [Zn^2+, zinc ion] | 52% |
| [Na+] [Na^+] | 0% |
| [Ca+2] [Ca^2+] | 0% |
| [Mn+2] [Mn^2+] | 0% |
